{"source": "paper PMC4845012", "about": "“Unique behavior of Trypanosoma cruzi mevalonate kinase: A conserved glycosomal enzyme involved in host cell invasion and signaling” (Scientific Reports, 2016)", "key": {"rTcMVK": {"target": "T1, rTcMVK (Trypanosoma cruzi, UniProt A0A165UDJ0)", "T1 construct": "gene MVK; N-terminal His6 tag (pET-28a, BamHI/HindIII), E. coli BL21; native 34 kDa; active dimer fraction from gel filtration", "T1 sequence (A0A165UDJ0 43-364 limits assumed)": "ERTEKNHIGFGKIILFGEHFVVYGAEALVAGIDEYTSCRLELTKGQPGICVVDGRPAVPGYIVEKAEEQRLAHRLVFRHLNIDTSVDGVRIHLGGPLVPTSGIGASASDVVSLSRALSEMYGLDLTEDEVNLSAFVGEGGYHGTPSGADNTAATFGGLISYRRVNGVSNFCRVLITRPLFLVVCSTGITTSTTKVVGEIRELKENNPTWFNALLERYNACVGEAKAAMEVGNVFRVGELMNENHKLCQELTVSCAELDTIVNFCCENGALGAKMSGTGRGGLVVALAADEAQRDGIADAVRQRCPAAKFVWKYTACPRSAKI", "experiment": "coupled pyruvate kinase / lactate dehydrogenase assay, NADH at […] nm", "format": "biochemical", "settings": "MgCl2 […], glycine pH […] °C, dimer"}, "[1]": {"target": "recombinant Trypanosoma cruzi mevalonate kinase (rTcMVK) (Trypanosoma cruzi (G strain))", "experiment": "SEC; Superdex 200 High Load 16/60 prep-grade, glycine buffer pH 9.0 with 0.15 M NaCl, after Ni-NTA; separates the oligomerization states of rTcMVK"}}, "note": "Where “and” joins values, the source holds several entries; their conditions need not be identical. Equal values may be shown once."}
{"molecule": "CC(O)(CCO)CC(=O)O", "note": "(racemic) [(RS)-mevalonic acid]", "values": [{"measurement": "coupled pyruvate kinase / lactate dehydrogenase assay, NADH at 340 nm", "setting": "rTcMVK; ATP […], racemic mevalonate […] from hydrolysed lactone", "result": "In vitro assays using synthetic mevalonic acid confirmed enzymatic activity of recombinant TcMVK"}]}
{"molecule": "Nc1ncnc2c1ncn2[C@@H]1O[C@H](COP(=O)(O)OP(=O)(O)OP(=O)(O)O)[C@@H](O)[C@H]1O", "note": "[ATP]", "values": [{"measurement": "coupled pyruvate kinase / lactate dehydrogenase assay, NADH at 340 nm", "setting": "rTcMVK; mevalonate […], blank without ATP", "result": "Blank assays were performed in the absence of ATP."}]}
{"molecule": "recombinant Trypanosoma cruzi mevalonate kinase (rTcMVK) (enzyme)", "values": [{"measurement": "stoichiometry N", "setting": "[1]", "result": "4 and 2"}]}
